The target in data set [1] is T1, FAS (fatty acid synthase), Cancer (Homo sapiens, UniProt P49327).
T1 construct: using a crude cell extract of a cancer cell line or Saccharomyces cerevisiae; endogenous in cells; host or cells: ZR-75-1 breast cancer cell line (crude dialyzed digitonin extract)
Kind of data set: FAS enzymatic assay, crude extract of breast cancer cell line ZR-75-1 (NADPH oxidation). The data set is classed as biochemical. The settings on record: ZR-75-1 crude cell extract, 30 min incubation at 10°-25° C.; read-out: IC50 for inhibition of FAS activity, Cancer. As for the experimental part:
Preparation of crude cell extracts: The potential of compounds to inhibit FAS enzymatic activity was determined using a crude cell extract of a cancer cell line or Saccharomyces cerevisiae. The breast cancer cell line ZR-75-1 was grown to confluence in RPMI with 10$FBS. The cells were harvested by scraping, washed once with cold phosphate buffered saline pH 7.5 and stored at -80° C. Extracts were prepared by thawing the cells in the presence of 4 vol. of 25 mM potassium phosphate pH 7.5, 1 mM EDTA, 1 mM DTT, 0.4% digitonin, 0.7 μg/ml pepstatin, 2 μg/ml aprotinin and 0.5 μg/ml leupeptin. Cells were homogenized with a Dounce type homogenizer for 20 strokes. Extracts were cleared by two sequential centrifugations at 30,000 xg, for 30 min each. The extract was dialyzed against 125 mM potassium phosphate pH 6.6, 1 mM EDTA, 1 mM DTT using a 100,000 molecular weight cut off membrane. The extract stored at 4° C. with 3 mM sodium azide. Yeast extracts were prepared from freeze-dried yeast. Yeast were reconstituted in 5 vol/g 100 mM potassium phosphate pH 6.5. Cells were harvested by centrifugation at 3,000 xg for 10 min. Cells were washed with 5 vol 100 mM potassium phosphate pH 6.5 and suspended in 2 vol. 125 mM potassium phosphate pH 6.6, 1 mM EDTA, 1 mM DTT, 0.7 μg/ml pepstatin, 2 μg/ml aprotinin and 0.5 μg/ml leupeptin. Sterile 0.5 mm glass beads were added (1/2 vol) and the mixture vortex vigorously for four 30 s intervals with 30 s rests on ice between mixes. Extracts were cleared by centrifugation and dialyzed as described above.
Testing of compound activity: Compounds were tested for their ability to inhibit FAS enzymatic activity by incubating the compounds with the crude cell extracts and measuring residual FAS activity. The compounds were mixed with a crude cell extract to the desired concentration and the mixture incubated at 10°-25° C. for 30 min. Residual FAS activity was measured as described below. The concentration of compound giving 50% maximal activity defined the IC50 which was calculated from a 4-parameter equation of the dose-response curves.
Enzymatic assay conditions: The FAS enzyme activity was measured by monitoring the oxidation of NADPH spectrophotometrically (Dils, R. and E. M. Carey, 1975, Fatty acid synthase from rabbit mammary gland. Methods in Enzymol. 35:74-83). A 50 μl portion of an extract or extract-compound mixture was mixed with 50 μl 250 mM potassium phosphate pH 6.6, 40 μM acetyl-CoA, 200 μM malonyl-CoA, 1 mM NADPH and 2 mM DTT. The initial rate of NADPH oxidation at 25° C. was measured by monitoring the decrease in absorbance at 340 nm.

In data set [2] the target is T2, FAS (fatty acid synthase), Yeast (Saccharomyces cerevisiae, UniProt P19097).
T2 construct: Yeast extracts were prepared from freeze-dried yeast; endogenous in cells; host or cells: freeze-dried Saccharomyces cerevisiae (crude glass-bead extract, dialyzed)
The data set is described as follows: FAS enzymatic assay, crude yeast extract (NADPH oxidation). It is filed as biochemical. The settings on record: 30 min incubation at 10°-25° C., read-out: IC50 for inhibition of FAS activity, Yeast. As for the experimental part:
Preparation of crude cell extracts: The potential of compounds to inhibit FAS enzymatic activity was determined using a crude cell extract of a cancer cell line or Saccharomyces cerevisiae. The breast cancer cell line ZR-75-1 was grown to confluence in RPMI with 10$FBS. The cells were harvested by scraping, washed once with cold phosphate buffered saline pH 7.5 and stored at -80° C. Extracts were prepared by thawing the cells in the presence of 4 vol. of 25 mM potassium phosphate pH 7.5, 1 mM EDTA, 1 mM DTT, 0.4% digitonin, 0.7 μg/ml pepstatin, 2 μg/ml aprotinin and 0.5 μg/ml leupeptin. Cells were homogenized with a Dounce type homogenizer for 20 strokes. Extracts were cleared by two sequential centrifugations at 30,000 xg, for 30 min each. […]
Testing of compound activity: Compounds were tested for their ability to inhibit FAS enzymatic activity by incubating the compounds with the crude cell extracts and measuring residual FAS activity. […] Residual FAS activity was measured as described below. […]
Enzymatic assay conditions: The FAS enzyme activity was measured by monitoring the oxidation of NADPH spectrophotometrically (Dils, R. and E. M. Carey, 1975, Fatty acid synthase from rabbit mammary gland. Methods in Enzymol. 35:74-83). […] The initial rate of NADPH oxidation at 25° C. was measured by monitoring the decrease in absorbance at 340 nm.

For another data set, the system named is SKBr 3 cells. The data set is described as follows: Growth inhibition assay, SKBr 3 cells (crystal violet). The data set is classed as cell-based. The settings on record: Homo sapiens, SK-BR-3, 72 h; 3 days with compound. As for the experimental part: (§1) Cells were seeded at 5×10^3 per well into 96-well plates and incubated for 3 days in RPMI, 10% FBS at 37° C. in a 5% CO2 :95% air atmosphere. Medium was removed and replaced with media plus compound. Compound doses were 10 serial dilutions from 200 μg/ml to 0.39 μg/ml. Cells were returned to the incubator for 3 additional days. The medium was removed and plates were washed twice with phosphate buffered saline. Wells were filled with 100 μl of 0.2% crystal violet in 2% ethanol for 10 min. Stain was removed from the wells and the plates were washed 3 times with distilled H2 O. After at least 4 h of drying wells were filled with 100 μl of 1% SDS and plates were shaken to disolve any dye crystals. Absorbance at 560 nm minus 650 nm in each well was measured using a Molecular Devices plate reader. IC50 values were calculated from 4-parameter curve-fits of the dose-response curves.

The next data set relates to HS 27 cells. Kind of data set: Growth inhibition assay, HS 27 cells (crystal violet). The data set is classed as cell-based. The settings on record: Homo sapiens, HS27, 72 h; 3 days with compound. As for the experimental part: as §1
The next data set has as its system Candida albicans. The data set is described as follows: Control organism susceptibility, Candida albicans. The data set is classed as cell-based. The settings on record: read-out: MIC (control organism).
For the next data set, the system named is HIV protease. The settings on record: cited from earlier work.
Data set [3] deals with myristoylation of proteins. The settings on record: cited from earlier work.
In data set [4] the test system is Mycobacterium tuberculosis. The settings on record: cited from earlier work.
Data set [5] concerns bacteria, actinomycetes, and mycobacteria. The settings on record: cited from earlier work.
For data set [6], the system named is mammary, colon, and prostatic carcinoma lines. The settings on record: U.S. Ser. No. 08/096,908 and its CIP; cited from earlier work.
The subject of the next data set is fatty acid synthase. The settings on record: cited from earlier work.
For the next data set, the system named is M. tuberculosis. Kind of data set: Radiometric (Bactec) susceptibility test, M. tuberculosis. It is filed as cell-based. The settings on record: Mycobacterium tuberculosis.
The subject of data set [7] is fatty acid synthase expression in MCF-7 cells. The settings on record: Northern analysis; cited from earlier work.
For data set [8], the system named is panel of cell lines with varying levels of FAS enzyme activity. The data set is described as follows: Anti-proliferative effect on a panel of cell lines with varying levels of FAS. It is filed as cell-based.
The next data set relates to acyl CoA-synthetase. The settings on record: for long-chain fatty acids; cited from earlier work.
Data set [9] deals with rat liver acyl-CoA synthetase. The settings on record: read-out: concentration causing 50% inhibition of acyl-CoA synthetase; cited from earlier work.
For another data set, the system named is Raji cells. The settings on record: cited from earlier work.
For the next data set, the system named is Vero cells. The settings on record: cited from earlier work.
The next data set concerns Hela cells. The settings on record: cited from earlier work.

We go through 14 compounds from patent US5539132A, “Cerulenin compounds for fatty acid synthesis inhibition” (Johns Hopkins University, priority 1994, dated 1996).

For orientation: MIC means the smallest concentration in the dilution series that meets the test's criterion for growth inhibition.

Converted amounts (≈) assume the structure as drawn. Bounds are passed on as bounds.

T1 sequence (P49327 whole entry): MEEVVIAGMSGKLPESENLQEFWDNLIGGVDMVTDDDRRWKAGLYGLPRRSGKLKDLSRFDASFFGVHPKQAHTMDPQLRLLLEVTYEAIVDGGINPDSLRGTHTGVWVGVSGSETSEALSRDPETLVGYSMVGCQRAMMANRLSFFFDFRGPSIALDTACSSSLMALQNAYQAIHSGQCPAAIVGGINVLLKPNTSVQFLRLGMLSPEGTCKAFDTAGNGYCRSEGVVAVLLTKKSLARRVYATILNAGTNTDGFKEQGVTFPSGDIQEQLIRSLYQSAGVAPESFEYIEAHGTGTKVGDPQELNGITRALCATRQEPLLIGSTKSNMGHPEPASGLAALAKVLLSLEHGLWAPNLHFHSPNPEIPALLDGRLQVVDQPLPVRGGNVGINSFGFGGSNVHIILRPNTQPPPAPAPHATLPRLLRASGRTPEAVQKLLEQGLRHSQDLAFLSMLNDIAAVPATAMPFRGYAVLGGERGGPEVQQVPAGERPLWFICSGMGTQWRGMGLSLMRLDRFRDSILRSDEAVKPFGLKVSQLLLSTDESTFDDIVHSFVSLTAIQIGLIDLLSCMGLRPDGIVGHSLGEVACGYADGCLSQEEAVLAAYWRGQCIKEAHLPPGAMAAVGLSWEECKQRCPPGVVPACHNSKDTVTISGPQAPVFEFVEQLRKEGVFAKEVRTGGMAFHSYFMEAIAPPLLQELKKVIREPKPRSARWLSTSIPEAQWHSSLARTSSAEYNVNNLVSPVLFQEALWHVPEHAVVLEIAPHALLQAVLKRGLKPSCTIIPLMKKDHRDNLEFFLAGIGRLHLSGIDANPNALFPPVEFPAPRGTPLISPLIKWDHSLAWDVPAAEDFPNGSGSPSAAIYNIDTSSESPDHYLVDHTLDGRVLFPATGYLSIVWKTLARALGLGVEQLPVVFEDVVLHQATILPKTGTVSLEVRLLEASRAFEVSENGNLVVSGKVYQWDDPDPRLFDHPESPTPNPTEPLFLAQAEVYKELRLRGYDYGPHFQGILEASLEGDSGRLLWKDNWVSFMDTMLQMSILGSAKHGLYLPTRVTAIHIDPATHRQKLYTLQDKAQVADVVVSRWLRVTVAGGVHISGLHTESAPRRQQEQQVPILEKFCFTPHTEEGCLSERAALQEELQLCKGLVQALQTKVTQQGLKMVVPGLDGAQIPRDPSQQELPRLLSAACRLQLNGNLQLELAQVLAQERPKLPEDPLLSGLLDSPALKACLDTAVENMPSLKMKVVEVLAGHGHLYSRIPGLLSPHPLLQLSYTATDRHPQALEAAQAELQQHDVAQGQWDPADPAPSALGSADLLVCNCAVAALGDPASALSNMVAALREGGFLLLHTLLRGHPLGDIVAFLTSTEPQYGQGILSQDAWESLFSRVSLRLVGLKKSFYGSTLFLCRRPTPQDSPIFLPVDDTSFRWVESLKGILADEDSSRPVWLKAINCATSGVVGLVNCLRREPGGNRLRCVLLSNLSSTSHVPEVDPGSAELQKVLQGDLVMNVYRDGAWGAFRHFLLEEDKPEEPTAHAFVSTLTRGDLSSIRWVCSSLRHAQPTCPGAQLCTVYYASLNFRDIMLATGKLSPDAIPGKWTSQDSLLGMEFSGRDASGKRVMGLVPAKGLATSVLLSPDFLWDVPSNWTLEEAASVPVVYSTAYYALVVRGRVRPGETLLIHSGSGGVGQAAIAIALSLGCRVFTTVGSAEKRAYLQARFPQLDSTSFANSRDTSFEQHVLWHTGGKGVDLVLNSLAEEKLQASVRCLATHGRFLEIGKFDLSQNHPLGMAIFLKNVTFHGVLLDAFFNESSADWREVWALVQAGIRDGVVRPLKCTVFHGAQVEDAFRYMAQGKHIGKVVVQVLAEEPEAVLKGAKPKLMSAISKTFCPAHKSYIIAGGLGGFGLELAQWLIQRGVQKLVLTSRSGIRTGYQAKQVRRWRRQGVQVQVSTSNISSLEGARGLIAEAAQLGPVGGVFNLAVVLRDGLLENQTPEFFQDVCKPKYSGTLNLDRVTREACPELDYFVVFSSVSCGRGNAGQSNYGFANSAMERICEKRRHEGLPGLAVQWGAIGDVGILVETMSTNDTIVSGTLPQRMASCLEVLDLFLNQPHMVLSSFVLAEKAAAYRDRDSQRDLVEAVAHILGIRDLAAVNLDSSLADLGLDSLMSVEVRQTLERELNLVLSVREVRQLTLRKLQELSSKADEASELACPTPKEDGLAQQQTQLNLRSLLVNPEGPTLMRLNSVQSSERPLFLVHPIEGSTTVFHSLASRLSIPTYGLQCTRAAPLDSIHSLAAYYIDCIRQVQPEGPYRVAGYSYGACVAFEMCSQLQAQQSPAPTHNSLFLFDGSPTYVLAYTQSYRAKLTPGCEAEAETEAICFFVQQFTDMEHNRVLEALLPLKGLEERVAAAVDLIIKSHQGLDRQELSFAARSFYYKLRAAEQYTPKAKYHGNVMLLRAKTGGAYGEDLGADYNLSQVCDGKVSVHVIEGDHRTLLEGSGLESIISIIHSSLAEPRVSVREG

Regarding `C/C=C/C/C=C/CCC(=O)[C@H]1O[C@H]1C(N)=O` [CTC002, (2S) (3R) 2,3-epoxy-4-oxo-7,10 dodecadienoyl amide], the IC50 in data set [1] worked out at 8.6 µM; in data set [2], 0.4 µM; with SKBr 3 cells, 20 µM; with HS 27 cells it was 20 µM. Also, in the data set on Candida albicans, the MIC is less than 1.5 µg/mL. Besides, the “inhibition of viral HIV protease, concentration” value with HIV protease was 5 mg/mL. Besides, the “inhibition of myristoylation of proteins” value in [3] was “does not specifically inhibit”. For the same compound, the “in vitro activity against Mycobacterium tuberculosis” value in data set [4] is “no activity”. Moreover, in data set [5], the “in vitro activity against some bacteria, actinomycetes, and mycobacteria” value was “some in vitro activity”. For the same compound, the “growth inhibition of carcinoma lines” value in data set [6] is “potently inhibit the growth”. Moreover, the “type of inhibition of fatty acid synthase” value in the data set with fatty acid synthase was “specific and non-competitive inhibitor”.
As for `Cc1cccc(/C=C/CCC2C=CC(=O)O2)c1` (centres unmarked) [CTC003], the IC50 in data set [1] was more than 100 µM; in the data set on SKBr 3 cells, more than 50 µM; with HS 27 cells, more than 50 µM.
Regarding `Cc1cccc(/C=C/CCC(O)C2OC2C(N)=O)c1` (centres unmarked) [CTC004], the IC50 in data set [1] was more than 100 µM; in the data set on SKBr 3 cells it was more than 50 µM; in the data set with HS 27 cells, more than 50 µM.
Regarding `Cc1cccc(/C=C/CCCN2C(=O)C=CC2=O)c1` [CTC005], the IC50 in data set [1] is more than 78 µM; with SKBr 3 cells it was more than 50 µM; in the data set with HS 27 cells, more than 50 µM.
`Cc1cccc(/C=C/CCC(=O)C2OC2C(N)=O)c1` (centres unmarked) [CTC006]: the IC50 in data set [1] was found to be 10.4 µM; in data set [2] it was 82 µM; in the data set with SKBr 3 cells, 21 µM; with HS 27 cells it was 32 µM. In addition, 25 µg/mL (≈ 96.4 µM) was the least that counted as inhibitory with M. tuberculosis (MIC).
Regarding `C/C=C/C/C=C/CCN1C(=O)C=CC1=O` [CTC013], the IC50 is more than 97 µM in data set [1], 63 µM with SKBr 3 cells and 63 µM in the data set on HS 27 cells.
For the compound `C/C=C/C/C=C/CCCN1C(=O)C=CC1=O` [CTC014], the results for the IC50 (in data set [1]; in the data set with SKBr 3 cells; in the data set on HS 27 cells) were more than 92 µM, more than 50 µM and more than 50 µM, respectively.
On to `N[C@@H](Cc1cc(I)c(Oc2ccc(O)c(I)c2)c(I)c1)C(=O)O` [T3, reference compound], for which the “effect on fatty acid synthase expression” value in data set [7] is listed as “no effect”.
In the case of `CCCCCCCCCCCCCCOc1ccc(C(=O)O)o1` [TOFA], the anti-proliferative effect entry in data set [8] is reported as “anti-proliferative effect”.
With `CCCCCC/C=C/C=C/C=N/NN=O` [Triacsin A], the “mechanism of inhibition of acyl CoA-synthetase” value with acyl CoA-synthetase is given as “competitive”.
Turning to `CCC/C=C/C/C=C/C=C/C=NN=NO` [Triacsin C, 1-hydroxy-3-(E, E, E-2',4',7'-undecatrienylidine) triazene], the IC50 in data set [9] is 8.7 µM. In the data set with Raji cells, the “growth inhibition, concentration” value is 1.0 µM. Also, in the data set with Vero cells, the “growth inhibition of Vero cells” value is listed as “inhibit growth”. The “growth inhibition of Hela cells” value with Hela cells is “inhibit growth”.
`CC(=O)[C@H]1CC[C@H]2[C@@H]3CCC4=CC(=O)CC[C@]4(C)[C@H]3CC[C@]12C` [progesterone, reference compound]: in [7], the “increase in fatty acid synthase expression” value was 5-10 fold.
In the case of “insulin growth factor-1: insulin growth factor-1”, the “effect on fatty acid synthase expression” value in data set [7] was “only slightly stimulatory”.
In the case of insulin: insulin, the “effect on fatty acid synthase expression” value in [7] is “only slightly stimulatory”.
